We go through two compounds from patent US12139520B2 (priority 2020, dated 2024).

The target in one assay is T1, hAMY3 receptor (Homo sapiens, UniProt O60896+P30988).
T1 sequence (P30988 25-474): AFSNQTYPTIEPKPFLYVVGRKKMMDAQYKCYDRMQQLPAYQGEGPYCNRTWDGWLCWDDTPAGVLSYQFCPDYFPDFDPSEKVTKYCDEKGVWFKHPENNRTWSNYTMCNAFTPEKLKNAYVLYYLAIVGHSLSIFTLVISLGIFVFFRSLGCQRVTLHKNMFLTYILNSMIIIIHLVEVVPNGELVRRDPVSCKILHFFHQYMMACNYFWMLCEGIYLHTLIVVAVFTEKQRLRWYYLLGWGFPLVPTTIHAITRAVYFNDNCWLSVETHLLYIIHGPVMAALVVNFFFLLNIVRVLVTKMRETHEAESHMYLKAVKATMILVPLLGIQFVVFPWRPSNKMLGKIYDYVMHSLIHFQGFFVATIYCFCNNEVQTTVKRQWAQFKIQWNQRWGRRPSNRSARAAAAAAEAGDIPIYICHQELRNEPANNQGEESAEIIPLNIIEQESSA
T1 sequence (O60896 24-148 partner): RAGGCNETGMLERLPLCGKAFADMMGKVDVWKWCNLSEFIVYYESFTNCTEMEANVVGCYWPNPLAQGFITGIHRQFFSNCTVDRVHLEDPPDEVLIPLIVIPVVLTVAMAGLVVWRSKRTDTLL
Briefly: cAMP assay for in vitro receptor activation, hAMY3-R. The assay is classed as cell-based. The note with it: cAMP assay, hAMY3 receptor; read-out: hAMY3R EC50. Put shortly:
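Stable hAMY3 cells; DPBS + 0.05% casein + 0.5 mM IBMX; graded compound doses, 30 min, RT; cAMP via HTRF Gs kit, TR-FRET read at 1 h.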

The next assay addresses hAM1 receptor (Homo sapiens, UniProt O60895+Q16602). Nature of the assay: cAMP assay for in vitro receptor activation, hAM1-R. The assay is classed as cell-based. The note with it: cAMP assay, hAM1 receptor; read-out: hAM1R EC50. Put shortly:
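A subcloned monoclonal line stably expressing hAM1 receptor is thawed and plated at 8000 cells/well. The assay buffer is DPBS with 0.05% casein and 0.5 mM IBMX, and receptor activation is followed by cAMP levels.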

Each structure is given as a SMILES string. Numbered stars: 1 amine (or outer) side, 2 acyl side, 3 side chain; on linkers, the order of the positions; unused ones are H or OH. Bridge positions count the residues as written; N and C are the ends. Square brackets hold non-standard residues; d marks the D form. Peptide text beside a SMILES is read from it. * marks the point of attachment. C20 diacid = O=C(O)CCCCCCCCCCCCCCCCCCC(=O)*; γGlu = O=C(O)[C@H](CCC(=O)[*:2])N[*:1]; Hyp = O=C(O)[C@@H]1C[C@@H](O)CN1; Aib = CC(C)(N)C(=O)O

Sequence of hAM1 receptor (Q16602 23-461): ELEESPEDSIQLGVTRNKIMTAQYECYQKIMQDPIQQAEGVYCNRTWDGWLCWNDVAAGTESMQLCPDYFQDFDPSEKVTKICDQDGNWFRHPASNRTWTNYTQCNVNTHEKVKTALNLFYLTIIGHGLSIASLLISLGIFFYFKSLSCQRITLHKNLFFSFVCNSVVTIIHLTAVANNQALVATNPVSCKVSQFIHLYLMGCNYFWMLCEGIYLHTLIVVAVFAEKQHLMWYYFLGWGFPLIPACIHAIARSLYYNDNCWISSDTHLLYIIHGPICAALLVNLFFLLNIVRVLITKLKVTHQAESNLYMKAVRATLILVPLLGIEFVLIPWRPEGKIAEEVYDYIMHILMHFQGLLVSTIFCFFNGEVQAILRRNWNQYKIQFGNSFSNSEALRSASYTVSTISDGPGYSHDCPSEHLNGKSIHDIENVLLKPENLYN
Sequence of hAM1 receptor (O60895 43-175 partner): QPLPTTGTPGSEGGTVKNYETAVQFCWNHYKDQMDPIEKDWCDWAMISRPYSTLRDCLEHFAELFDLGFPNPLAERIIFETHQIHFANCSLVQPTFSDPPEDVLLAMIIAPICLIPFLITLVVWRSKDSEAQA

For the compound `CC[C@H](C)[C@H](NC(=O)[C@H](CCC(N)=O)NC(=O)[C@H](Cc1c[nH]cn1)NC(=O)[C@H](C)NC(=O)[C@H](CC(C)C)NC(=O)[C@H](CCCNC(=N)N)NC(=O)[C@H](CC(=O)O)NC(=O)[C@@H](NC(=O)[C@@H](NC(=O)[C@@H]1CSSC[C@H](NC(=O)[C@H](CCCCN)NC(=O)CC[C@H](NC(=O)CCCCCCCCCCCCCCCCCCC(=O)O)C(=O)O)C(=O)N[C@@H](CC(N)=O)C(=O)N[C@@H]([C@@H](C)O)C(=O)N[C@@H](C)C(=O)N[C@@H]([C@@H](C)O)C(=O)N1)[C@@H](C)O)C(C)C)C(=O)N[C@@H](C)C(=O)N[C@@H](CCC(N)=O)C(=O)N[C@@H](Cc1ccccc1)C(=O)N[C@H](C(=O)N[C@@H](CC(=O)O)C(=O)N[C@@H](CCCCN)C(=O)N[C@@H](CC(=O)O)C(=O)N[C@@H](CCCCN)C(=O)N[C@@H](CC(=O)O)C(=O)N[C@@H](CC(N)=O)C(=O)N[C@H](C(=O)N[C@@H](C)C(=O)N1CCC[C@H]1C(=O)N1CCC[C@H]1C(=O)N[C@H](C(=O)N[C@@H](CC(N)=O)C(=O)N[C@H](C(=O)NCC(=O)N[C@@H](CO)C(=O)N[C@@H](CC(N)=O)C(=O)NCC(=O)N1C[C@H](O)C[C@H]1C(N)=O)C(C)C)[C@@H](C)O)C(C)C)[C@@H](C)O` [compound 112] ({C20 diacid-γGlu}-KCNTATCTVDRLAHQIAQFTDKDKDNVAPPTNVGSNG[Hyp]-NH2; disulfide 2-7), the values for the EC50 on hAMY3 receptor and at hAM1 receptor were 0.021 nM and over 5000 nM, respectively.

Consider `CC[C@H](C)[C@H](NC(=O)[C@H](CCC(N)=O)NC(=O)[C@H](Cc1c[nH]cn1)NC(=O)[C@H](C)NC(=O)[C@H](CC(C)C)NC(=O)[C@H](CCCNC(=N)N)NC(=O)[C@H](CCC(N)=O)NC(=O)[C@@H](NC(=O)[C@@H](NC(=O)[C@@H]1CSSC[C@H](NC(=O)[C@H](CCCCN)NC(=O)CC[C@H](NC(=O)CCCCCCCCCCCCCCCCCCC(=O)O)C(=O)O)C(=O)N[C@@H](CC(N)=O)C(=O)N[C@@H]([C@@H](C)O)C(=O)NC(C)(C)C(=O)N[C@@H]([C@@H](C)O)C(=O)N1)[C@@H](C)O)C(C)C)C(=O)N[C@@H](Cc1ccc(O)cc1)C(=O)N[C@@H](CCC(N)=O)C(=O)N[C@@H](Cc1ccccc1)C(=O)N[C@H](C(=O)N[C@@H](CC(=O)O)C(=O)N[C@@H](CCCCN)C(=O)N[C@@H](CC(=O)O)C(=O)N[C@@H](CCCCN)C(=O)N[C@@H](CC(=O)O)C(=O)N[C@@H](CC(N)=O)C(=O)N[C@H](C(=O)N[C@@H](C)C(=O)N1CCC[C@H]1C(=O)N1CCC[C@H]1C(=O)N[C@H](C(=O)N[C@@H](CC(N)=O)C(=O)N[C@H](C(=O)NCC(=O)N[C@@H](CO)C(=O)N[C@@H](CC(N)=O)C(=O)NCC(=O)N1C[C@H](O)C[C@H]1C(N)=O)C(C)C)[C@@H](C)O)C(C)C)[C@@H](C)O` [compound 119] ({C20 diacid-γGlu}-KCNT[Aib]TCTVQRLAHQIYQFTDKDKDNVAPPTNVGSNG[Hyp]-NH2; disulfide 2-7), for which the half-maximal effective concentration (EC50) was 0.024 nM on hAMY3 receptor and over 5000 nM on hAM1 receptor.
